Type in all cases: cell-based, human
The subject of assay [1] is transferrin receptor 1 (TFRC) mRNA. Briefly: TFRC gene expression by qRT-PCR in VCaP cells. To be noted: oligopeptide at 10 μM with […] ENZ. Here is the method: (§1) Gene Expression. LNCaP, PC-3, VCaP, and VCaP-EnzR cells were seeded in 24-well plates and maintained in RPMI1640 medium supplemented with 2 mmol/L L-glutamine. 100 U/mL penicillin, […] streptomycin, and 10% heat-inactivated fetal bovine serum at 37° C. in a humidified 5% CO2 atmosphere. […] SPH absent wells (DMSO 0.04%) were used as the negative control. All experiments were run in triplicate.
(§2) Samples were studied for expression of the ferritin heavy chain 1 (FTH1) and transferrin receptor 1 ([…]) genes. Total RNA was extracted from cell pellets using the UPzol reagent (Biotechrabbit), followed by DNAse treatment (DNAse TURBO) according to the manufacturers' protocols. Complementary DNA (cDNA) was synthesized with the High Capacity cDNA Reverse Transcription Kit (Applied Biosystems) using random hexamers. Gene expression levels were measured by qRT-PCR.
(§3) 1 μl of cDNA (corresponding to 50 ng of reverse transcribed RNA) was amplified by Qpcr (QuantStudio™ 6 Flex Real-Time PCR System), using TaqMan™ Universal PCR Master Mix (Catalog No. 4304437) and a TaqMan™ assay (Roche Molecular Systems, Inc., Pleasanton, CA). FTH1 and TFRC gene expression was estimated relative to expression of the housekeeping gene, beta-actin (ACTB), following the standard formula: 2-ΔCt. TaqMan probe IDs used include: (i) FTH1, Hs01694011_s1; (ii) TFRC, Hs00951083_m1; and (iii) ACTB, Hs01060665_g1. […]

Assay [2] has as its system ferritin heavy chain 1 (FTH1) mRNA. Briefly: FTH1 gene expression by qRT-PCR in VCaP cells. The settings on record: oligopeptide at 10 μM with […] ENZ. On the procedure: as §1, §2, §3
(In general: Real-time PCR tracks product formation cycle by cycle.)

Assay [3] has the same test system. Briefly: FTH1 gene expression by qRT-PCR in VCaP-EnzR cells. To be noted: oligopeptide at 10 μM with […] μM ENZ. Here is the method:
as §1, §2, §3

Another assay relates to VCaP cells. Briefly: Clonogenic assay, VCaP cells. To be noted: 10 μM oligopeptide with […] enzalutamide, p<0.01. On the procedure:
(§4) Test Solutions. SPH test solutions were prepared by adding 10 μg, 40 μg, or 160 μg of SPH powder to 1 ml of DMEM containing 0.3% FBS+2% DMSO and sonicating for 10 min just prior to use. Bicalutamide, referred to herein as BIC, (Sigma-Aldrich, Catalog No. B9061) test solutions were prepared by adding 0.43 or 4.3 μg to 1 ml (1 μM and 10 μM) of DMEM containing 0.3% FBS+2% DMSO and sonicating for 10 min just prior to use.
(§5) Cell Culture. The C4 subline (CRL-3313™, RRID: CVCL 4783), which was derived from the human prostate carcinoma cell line LNCaP, was obtained from ATCC (Manassas, VA). C4, which is referred to herein as LNCaP, is an exemplary androgen receptor-positive (AR+ve) cell line that has an epithelial-like morphology and a low metastatic potential. The PC-3 cell line (CRL-1435, RRID: CVCL_0035) was obtained from ATCC (Manassas, VA). PC-3 is an exemplary androgen receptor-negative (AR−ve) cell line that has an epithelial morphology and a high metastatic potential. The Vertebral-Cancer of the Prostate (VCaP) cell line was obtained from Sigma-Aldrich, USA (Catalog No. 06020201). […]
(§6) Clonogenic Assay. […] The colonies were allowed to develop over 12 days, stained with crystal violet and automatically counted using a TC20 Automated Cell Counter (Bio Rad, Hercules, CA). […]

Assay [4] relates to transferrin receptor 1 (TFRC) mRNA. Nature of the assay: TFRC gene expression by qRT-PCR in LNCaP cells. The settings on record: oligopeptide at 10 μM with 0.4 μM BIC. Here is the method:
as §1, §2, §3

For assay [5] the test system is unchanged. Nature of the assay: TFRC gene expression by qRT-PCR in PC3 cells. To be noted: oligopeptide at 10 μM with 10 μM BIC. Here is the method: as §1, §2, §3
The subject of another assay is VCaP-EnzR cells. Briefly: Clonogenic assay, VCaP-EnzR cells. The settings on record: 10 μM oligopeptide with […] μM enzalutamide, p<0.001. Here is the method: as §4, §5, §6
In assay [6] the test system is transferrin receptor 1 (TFRC) mRNA. Nature of the assay: TFRC gene expression by qRT-PCR in VCaP-EnzR cells. To be noted: oligopeptide at 10 μM with […] μM ENZ. Here is the method: as §1, §2, §3
The test system of the next assay is PC3 cells. Briefly: Clonogenic assay, PC3 cells. The settings on record: PC3; 10 μM oligopeptide with 10 μM bicalutamide. On the procedure: as §4
Cell Culture. The C4 subline (CRL-3313™, RRID: CVCL 4783), which was derived from the human prostate carcinoma cell line LNCaP, was obtained from ATCC (Manassas, VA). C4, which is referred to herein as LNCaP, is an exemplary androgen receptor-positive (AR+ve) cell line that has an epithelial-like morphology and a low metastatic potential. The PC-3 cell line (CRL-1435, RRID: CVCL_0035) was obtained from ATCC (Manassas, VA). PC-3 is an exemplary androgen receptor-negative (AR−ve) cell line that has an epithelial morphology and a high metastatic potential. The Vertebral-Cancer of the Prostate (VCaP) cell line was obtained from Sigma-Aldrich, USA (Catalog No. 06020201). VCaP is a human cell line with an epithelial morphology that was established from a metastatic prostate cancer lesion (Korenchuk et al., In Vivo, 15(2):163˜168, 2001). VCaP cells are androgen receptor-positive and express high levels of prostate-specific antigen. The VCaP-EnzR cell line was also obtained from Sigma-Aldrich, USA (Catalog No. SCC421). […] VCaP-EnzR cells are enzalutamide-resistant and therefore are a suitable model for studying castration-resistant prostate cancer. All cell lines were cultured in RPMI1640 supplemented with 2 mmol/L L-glutamine. 100 U/mL penicillin, […] streptomycin, and 10% heat-inactivated fetal bovine serum. All cells were certified negative for Mycoplasma.
Clonogenic Assay. Confluent cells were trypsinized and seeded at densities ranging from 3000 to 5000 cells in 10 cm Petri dishes, depending on the cell line, as recommended in the ATCC or Sigma-Aldrich product sheets. […] Treatments were applied daily for 5 days without media changes. The colonies were allowed to develop over 12 days, stained with crystal violet and automatically counted using a TC20 Automated Cell Counter (Bio Rad, Hercules, CA). Each assay was internally controlled using untreated cells (cell media+0.1% DMSO). Relative plating efficiencies were expressed as percentages relative to the plating efficiency of untreated cells and reported as the relative percent colony survival value. All experiments were performed in triplicate.
All oligopeptides were tested in combination with BIC or ENZ in clonogenic assays. […] SPH absent wells (DMSO 0.04%) were used as the negative control. All experiments were run in triplicate.

Assay [7] deals with ferritin heavy chain 1 (FTH1) mRNA. Briefly: FTH1 gene expression by qRT-PCR in LNCaP cells. The settings on record: oligopeptide at 10 μM with 0.4 μM BIC. Here is the method:
as §1, §2, §3

The test system is the same in assay [8]. Nature of the assay: FTH1 gene expression by qRT-PCR in PC3 cells. To be noted: oligopeptide at 10 μM with 10 μM BIC. Here is the method: as §1, §2, §3

Values joined by “and” are separate entries in the source; they are usually repeats but may differ in a detail not shown here. Equal values may be shown once.

For the substance “REESGEP [FT-002, synthetic oligopeptide; -B / -E: tested with bicalutamide / enzalutamide]”, the “TFRC Fold Change, Average” value in assay [1] worked out at 0.6; in assay [4], 0.7; in [5], 0.7; in assay [6], 0.5. Also, the “FTH1 Fold Change, Average” value came to 2.2 in [2], 3.6 in [3], 2.0 in [7] and 2.0 in assay [8]. Also, the “decrease in cell survival compared to […] enzalutamide with 160 SPH” value with VCaP cells was “approximately 40%”. Further, the “TFRC Fold Change (single replicates)” value is 0.7 in assay [4]; 0.7 and 0.8 and 0.6 in assay [5] (listed as FT-002-B). The substance further had a relative survival in the assay with VCaP-EnzR cells of 11%. Also, the “decrease in survival compared to 10 μM bicalutamide monotreatment” value with PC3 cells was “approximately 70%”. Moreover, the “FTH1 Fold Change (single replicates)” value in assay [7] (listed as FT-002-B) was 2.1 (2×) and 1.9; in assay [8] (listed as FT-002-B), 2.0 (2×) and 2.1.

Values taken from patent publication US20250127845A1, “MEDICINAL USES OF OLIGOPEPTIDES IN COMBINATION WITH AN ANTIANDROGEN” (HBC IMMUNOLOGY INC., priority 2022, published 2025).
